Data set [1] relates to VSV-G-pseudotype virus (pVSV-G). Nature of the data set: microbe, parasite or virus in culture. The settings on record: Vesicular stomatitis virus, read-out: %inh@10µM (pVSV-G). The class given is cell-based.
Data set [2] relates to EBOV-GP-pseudotyped virus (pEBOV). Nature of the data set: microbe, parasite or virus in culture. As to conditions: for inhibition at 10 µM: Zaire ebolavirus, Vero C1008, read-out: %inh@10 μM (pEBOV); for pEC50: Vesicular stomatitis virus, Vero C1008, 24 h, read-out: EC50 (pEBOV).
For data set [3] the test system is unchanged.
Data set [4] relates to wild-type Zaire EBOV Mayinga 1976 strain (EBOV May). The experiment in a line: microbe, parasite or virus in culture. The settings on record: Zaire ebolavirus, Vero C1008, 72 h, read-out: EC50 (EBOV May).
For data set [5] the test system is unchanged.

pEC50: −log10 of the molar value.

For `O=C(NCCc1ccccc1)c1ccc(-c2ccc(OC3CCNCC3)cc2)s1` [compound 60, N-Phenethyl-5-(4-(piperidin-4-yloxy)phenyl)thiophene-2-carboxamide], the inhibition at 10 µM in data set [1] was -12%; in data set [2] it was -8%. The same compound displayed a CC50 at 24 h in “in vitro” (chlorocebus sabaeus) of 10 µM. For the same compound, the “antiviral activity against pEBOV (in words)” value (shortened to “antiviral activity”) in data set [3] is “completely inactive”.
`CC(C)(C)OC(=O)N1CCC(Oc2ccccc2-c2ccc(C(=O)Nc3cccc(Cl)c3)s2)CC1` [compound 34, tert-butyl 4-(2-(5-((3-chlorophenyl)carbamoyl)thiophen-2-yl)phenoxy)piperidine-1-carboxylate]: the inhibition at 10 µM in data set [2] is -36%. This compound returned a CC50 in “in vitro” (chlorocebus sabaeus) of more than 100 µM. Further, in data set [3], the “antiviral activity” value is on record as “complete loss of activity”.
For the compound `O=C(NCCC1CCN(Cc2ccccc2)CC1)c1ccc(-c2ccccc2)s1` [compound 7], the inhibition at 10 µM in data set [2] was less than 75%. This compound also gave a CC50 in “in vitro” (chlorocebus sabaeus) of more than 100 µM.
By pEC50 is commonly meant the EC50 on a negative log10 scale, so that one unit is a factor of ten. Turning to `O=C(NCCc1ccccc1)c1ccc(-c2ccccc2)s1` [compound 5], the pEC50 in data set [4] was less than 4.00. The inhibition at 10 µM in data set [2] was less than 75%. For the same compound, the CC50 in “in vitro” (African green monkey) is 100 µM; in the data set “in vitro” (chlorocebus sabaeus) it was more than 100 µM.
Take `O=C(Nc1ccccc1)c1cnc(-c2ccc(OC3CCNCC3)cc2)s1` [compound 78, N-Phenyl-2-(4-(piperidin-4-yloxy)phenyl)thiazole-5-carboxamide]: the inhibition at 10 µM in data set [1] was -32%; in data set [2], -96%. For the same compound, in the data set “in vitro” (chlorocebus sabaeus), the CC50 at 24 h came to 50 µM.
With `O=C(Nc1ccccc1)c1ccc(-c2ccccc2)s1` [compound 2], in data set [2], the inhibition at 10 µM was less than 75%. This compound gave a CC50 in “in vitro” (chlorocebus sabaeus) of more than 100 µM.
In the case of `O=C(c1ccc(-c2ccccc2OC2CCNCC2)s1)N1CCCC1` [compound 52, (5-(2-(Piperidin-4-yloxy)phenyl)thiophen-2-yl)(pyrrolidin-1-yl)methanone], the inhibition at 10 µM in data set [1] is -108%; in data set [2], -116%. This compound registered a CC50 in “in vitro” (chlorocebus sabaeus) of more than 100 µM. Also, the “antiviral activity” value in data set [3] is “completely inactive”.
The like results for `O=C(NCCC1CCN(Cc2ccccc2)CC1)c1ccc(-c2ccc(OC3CCNCC3)cc2)s1` [compound 63, N-(2-(1-Benzylpiperidin-4-yl)ethyl)-5-(4-(piperidin-4-yloxy)phenyl)thiophene-2-carboxamide] were, in that order, 12%, 58%, more than 100 µM and “completely inactive”.
As to `O=C(Nc1ccc(Cl)cc1)c1ccc(-c2cccc(O)c2)s1` [compound 24], in data set [2], the inhibition at 10 µM came out at 16%. The compound also showed a CC50 in the data set “in vitro” (chlorocebus sabaeus) of more than 200 µM.
As for `O=C(NCCC1CCN(Cc2ccccc2)CC1)c1ccc(-c2ccccc2O)s1` [compound 21], the inhibition at 10 µM in data set [2] is -22%. In the data set “in vitro” (chlorocebus sabaeus), the CC50 at 24 h turned out to be 70 µM.
Take `CC(C)(C)OC(=O)N1CCC(Oc2cccc(-c3ccc(C(=O)Nc4ccccc4)s3)c2)CC1` [compound 39, tert-butyl 4-(3-(5-(phenylcarbamoyl)thiophen-2-yl)phenoxy)piperidine-1-carboxylate]: the inhibition at 10 µM in data set [2] came out at 38%. In data set [3], the “antiviral activity” value was “complete loss of activity”.
Turning to `O=C(Nc1ccccc1)c1ccc(-c2ccccc2O)s1` [compound 16], the inhibition at 10 µM in data set [2] was -36%. This compound had a CC50 in the data set “in vitro” (chlorocebus sabaeus) of more than 100 µM.
On the same counts, the results for `O=C(Nc1ccc(Cl)cc1)c1ccc(-c2ccccc2)s1` [compound 3] are less than 75% and more than 100 µM.
In the case of `O=C(Nc1ccccc1)c1ccc(-c2ccccc2OC2CCNCC2)o1` [compound 100, N-Phenyl-5-(2-(piperidin-4-yloxy)phenyl)furan-2-carboxamide], the inhibition at 10 µM in data set [1] came out at 32%. Besides, in data set [2], the negative logarithm of the EC50 (pEC50) was 4.69. Further, in “in vitro” (chlorocebus sabaeus), the CC50 at 24 h worked out at 79 µM. In addition, the “SI (CC50/EC50)” value in data set [3] is recorded as 3.8.
`O=C(NCCc1ccccc1)c1ccc(-c2ccccc2O)s1` [compound 19]: in data set [2], the inhibition at 10 µM is -22%. Also, the CC50 in the data set “in vitro” (chlorocebus sabaeus) is more than 100 µM.
Take `O=C(NCCc1ccccc1)c1ccc(-c2cccc(O)c2)s1` [compound 26]: the inhibition at 10 µM in data set [2] was found to be 10%. The CC50 in “in vitro” (chlorocebus sabaeus) is more than 200 µM.
The like results for `O=C(Nc1cccc(Cl)c1)c1ccc(-c2ccccc2O)s1` [compound 18] were, in that order, -35% and more than 100 µM.
Regarding `O=C(NCCC1CCN(Cc2ccccc2)CC1)c1ccc(-c2ccc(O)cc2)s1` [compound 31], the inhibition at 10 µM in data set [2] came out at 41%. Moreover, the CC50 in the data set “in vitro” (chlorocebus sabaeus) was more than 100 µM.
Regarding `O=C(Nc1ccccc1)c1ccc(-c2ccccc2OC2CCN(Cc3ccccc3)CC2)s1` [compound 64], the inhibition at 10 µM in data set [2] worked out at 27%. The compound also registered a CC50 in the data set “in vitro” (chlorocebus sabaeus) of more than 200 µM. Moreover, in data set [3], the “antiviral activity” value is recorded as “lacked activity”.
Regarding `O=C(c1ccc(-c2ccccc2O)s1)N1CCCC1` [compound 22], the inhibition at 10 µM in data set [2] was 0%. The same compound registered a CC50 in the data set “in vitro” (chlorocebus sabaeus) of more than 200 µM.
`O=C(Nc1ccccc1)c1cnc(-c2cccc(OC3CCNCC3)c2)s1` [compound 98, N-Phenyl-2-(3-(piperidin-4-yloxy)phenyl)thiazole-5-carboxamide]: the inhibition at 10 µM is -18% in data set [1] and -8% in data set [2].
Consider `O=C(Nc1cccc(Cl)c1)c1ccc(-c2ccccc2)s1` [compound 4], for which the pEC50 in data set [4] is less than 4.00. Besides, the inhibition at 10 µM in data set [2] is less than 75%. This compound also returned a CC50 in the data set “in vitro” (chlorocebus sabaeus) of more than 100 µM.
Take `O=C(Nc1cccc(Cl)c1)c1ccc(-c2cccc(OC3CCNCC3)c2)s1` [compound 55, N-(3-Chlorophenyl)-5-(3-(piperidin-4-yloxy)phenyl)thiophene-2-carboxamide]: the pEC50 in data set [4] is 5.73; in data set [2], 5.12. For the same compound, in data set [5], the “SI (CC50/EC50)” value was determined as 8.0. In data set [1], the inhibition at 10 µM was -4%. Moreover, the CC50 at 24 h in “in vitro” (chlorocebus sabaeus) was 15 µM.
As for `O=C(Nc1ccc(Cl)cc1)c1ccc(-c2ccccc2O)s1` [compound 17], the inhibition at 10 µM in data set [2] was -19%. The same compound returned a CC50 in the data set “in vitro” (chlorocebus sabaeus) of more than 100 µM.
The like results for `O=C(NCCc1ccccc1)c1ccc(-c2ccc(O)cc2)s1` [compound 30] were, in that order, -63% and more than 200 µM.
As to `O=C(Nc1cccc(Cl)c1)c1ccc(-c2cccc(O)c2)s1` [compound 25], the inhibition at 10 µM in data set [2] was -20%. Also, in the data set “in vitro” (chlorocebus sabaeus), the CC50 was more than 200 µM.
`O=C(Nc1ccc(N2CCOCC2)cc1)c1ccc(-c2ccccc2O)s1` [compound 20]: the inhibition at 10 µM in data set [2] was -23%. The same compound registered a CC50 in the data set “in vitro” (chlorocebus sabaeus) of more than 100 µM.
On the same counts, the results for `O=C(Nc1ccc(N2CCOCC2)cc1)c1ccc(-c2ccccc2)s1` [compound 6] are less than 75% and more than 100 µM.
The like results for `O=C(Nc1cccc(Cl)c1)c1ccc(-c2ccc(O)cc2)s1` [compound 29] were, in that order, 27% and more than 200 µM.
The like results for `O=C(c1ccc(-c2ccccc2)s1)N1CCCC1` [compound 8] were, in that order, less than 75% and more than 100 µM.
With `O=C(Nc1ccc(Cl)cc1)c1ccc(-c2ccc(O)cc2)s1` [compound 28], the inhibition at 10 µM in data set [2] was found to be 46%. The compound also yielded a CC50 in “in vitro” (chlorocebus sabaeus) of more than 200 µM.

(Values after PMC11440591 (Journal of Medicinal Chemistry, 2024).)
